Assay results as given in US9382254B2, “Compounds and pharmaceutical compositions thereof for the treatment of cystic fibrosis” (Galapagos NV, priority 2013, dated 2016).
pEC50: −log10 of the molar value. Several values for one entry are separate records, joined by “and”; a condition that tells them apart may be missing. Equal entries are not always repeated.

What was measured:
Format in all cases: cell-based
CFTR ΔF508 mutant [1] = target: T1, CFTR ΔF508 mutant (Homo sapiens, UniProt P13569, DEL508-508); assay: YFP-halide influx assay for the CFTR-ΔF508 mutation, PBS buffer (96 well); details: CFBE41o- cells, forskolin 10.67 μM
T1 construct: expressed in transfected cells; host or cells: CFBE41o- (adenoviral transduction)
Method in brief: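 CFBE41o- cells were adenovirally transduced with CFTR ΔF508 and YFP H148Q/I152L, then incubated 24 h at 27 °C or with a CFTR modulator at 37 °C. I⁻-induced fluorescence quenching was recorded over 7 s after injection; response expressed as 1−F/F0, with EC50 from concentration plots.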

CFTR-S549N = target: T2, CFTR-S549N (Homo sapiens, UniProt P13569, S549N); assay: YFP-halide influx assay for the CFTR-S549N
T2 construct: expressed in transfected cells
Method in brief: (§1)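 HEK293 cells reverse-transfected with the CFTR mutant plus halide-sensitive YFP (H148Q/I152L/F47L), expressed 24 h at 37 °C. Channel activity measured as I⁻-induced fluorescence quenching over 7 s after injection, expressed as 1-F/F0; EC50 from 1-F/F0 versus compound concentration.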

CFTR G551D mutant = target: T3, CFTR G551D mutant (Homo sapiens, UniProt P13569, G551D); assay: YFP-halide influx assay for the CFTR-G551D mutation; details: HEK293 cells, forskolin 10.67 μM
T3 construct: expressed in transfected cells; host or cells: HEK293 (reverse transfection with plasmid)
Method in brief: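 Channel opening potentiation measured as 1−F/F0, where F is YFP fluorescence 7 s after iodide injection and F0 before; EC50 taken from concentration plot. Cells: HEK293 transiently expressing CFTR G551D plus halide-sensitive YFP (H148Q, I152L, F47L), 24 h at 37 °C, 5% CO2.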

CFTR ΔF508 mutant [2] = target: T1, CFTR ΔF508 mutant; assay: YFP-halide influx assay for the CFTR-ΔF508 mutation (384 well, FDSS/μCell); details: CFBE41o- cells, CFTR-ΔF508, 1×D-PBS, fluorescence after 36 seconds
Method in brief: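 Potentiator read-out as 1−F/F0, F taken 36 s after iodide addition, EC50 fitted against compound concentration. Cells: CFBE41o- expressing ΔF508 CFTR plus halide-sensitive YFP via adenovirus, rescued by 27 °C for 24 h or 24 h modulator at 37 °C.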

CFTR-R117H = target: T4, CFTR-R117H (Homo sapiens, UniProt P13569, R117H); assay: YFP-halide influx assay for the CFTR-R117H
T4 construct: expressed in transfected cells
Method in brief: as §1

CFTR-G1349D = target: T5, CFTR-G1349D (Homo sapiens, UniProt P13569, G1349D); assay: YFP-halide influx assay for the CFTR-G1349D
T5 construct: expressed in transfected cells
Method in brief: as §1

CFTR-G178R = target: T6, CFTR-G178R (Homo sapiens, UniProt P13569, G178R); assay: YFP-halide influx assay for the CFTR-G178R
T6 construct: expressed in transfected cells
Method in brief: as §1

CFTR ΔF508 mutant [3] = target: T1, CFTR ΔF508 mutant; assay: YFP-halide influx assay for the CFTR-ΔF508 mutation, gluconate buffer; details: CFBE41o- cells, forskolin 10.67 μM
Method in brief: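 Channel opening is read as the fall in YFP fluorescence over 7 s following iodide injection, expressed as 1-F/F0 and plotted versus compound concentration to derive EC50. Cells used were CFBE41o- expressing adenoviral ΔF508 CFTR and halide-sensitive YFP, rescued by 24 h at 27 °C or 24 h modulator treatment at 37 °C.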

T4 sequence (P13569 whole entry R117H): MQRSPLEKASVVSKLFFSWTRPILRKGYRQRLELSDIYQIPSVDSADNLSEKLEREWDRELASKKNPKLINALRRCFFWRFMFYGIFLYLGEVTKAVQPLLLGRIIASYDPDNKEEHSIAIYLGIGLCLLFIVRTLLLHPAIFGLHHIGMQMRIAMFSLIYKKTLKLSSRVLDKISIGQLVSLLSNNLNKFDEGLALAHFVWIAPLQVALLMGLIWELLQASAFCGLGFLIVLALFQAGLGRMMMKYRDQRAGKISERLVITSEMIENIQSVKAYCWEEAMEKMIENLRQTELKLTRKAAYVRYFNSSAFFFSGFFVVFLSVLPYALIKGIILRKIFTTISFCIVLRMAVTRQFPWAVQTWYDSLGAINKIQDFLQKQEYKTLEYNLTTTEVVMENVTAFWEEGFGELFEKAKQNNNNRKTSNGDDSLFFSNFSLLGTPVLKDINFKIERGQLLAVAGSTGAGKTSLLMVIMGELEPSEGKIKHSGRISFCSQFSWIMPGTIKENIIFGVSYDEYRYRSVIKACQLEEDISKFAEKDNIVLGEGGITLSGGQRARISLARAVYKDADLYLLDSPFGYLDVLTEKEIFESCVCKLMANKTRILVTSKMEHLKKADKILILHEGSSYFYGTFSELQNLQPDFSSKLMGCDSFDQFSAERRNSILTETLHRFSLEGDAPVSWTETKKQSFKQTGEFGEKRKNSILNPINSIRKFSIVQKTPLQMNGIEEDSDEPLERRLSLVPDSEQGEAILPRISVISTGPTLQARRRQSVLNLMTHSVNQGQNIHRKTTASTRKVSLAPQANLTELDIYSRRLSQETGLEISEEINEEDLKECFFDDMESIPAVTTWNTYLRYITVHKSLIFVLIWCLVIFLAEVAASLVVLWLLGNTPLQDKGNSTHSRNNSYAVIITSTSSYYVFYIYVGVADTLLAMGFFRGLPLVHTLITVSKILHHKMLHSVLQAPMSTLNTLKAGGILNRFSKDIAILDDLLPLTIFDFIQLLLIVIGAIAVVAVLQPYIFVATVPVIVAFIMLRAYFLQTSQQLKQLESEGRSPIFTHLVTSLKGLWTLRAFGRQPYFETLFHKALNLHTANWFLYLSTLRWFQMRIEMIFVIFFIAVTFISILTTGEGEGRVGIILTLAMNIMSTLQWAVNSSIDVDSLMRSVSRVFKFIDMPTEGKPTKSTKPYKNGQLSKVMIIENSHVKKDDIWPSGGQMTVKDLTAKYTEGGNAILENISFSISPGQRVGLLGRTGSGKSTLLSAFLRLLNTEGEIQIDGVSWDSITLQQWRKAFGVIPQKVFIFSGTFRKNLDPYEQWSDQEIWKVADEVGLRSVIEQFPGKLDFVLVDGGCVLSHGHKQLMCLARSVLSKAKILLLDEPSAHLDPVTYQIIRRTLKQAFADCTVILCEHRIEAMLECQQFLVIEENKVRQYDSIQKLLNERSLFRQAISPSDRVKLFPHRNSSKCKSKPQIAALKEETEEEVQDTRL
T6 sequence (P13569 whole entry G178R): as the sequence (P13569 whole entry R117H) above, with H117R, G178R counted along it
T2 sequence (P13569 whole entry S549N): as the sequence (P13569 whole entry R117H) above, with H117R, S549N counted along it
T3 sequence (P13569 whole entry G551D): as the sequence (P13569 whole entry R117H) above, with H117R, G551D counted along it
T5 sequence (P13569 whole entry G1349D): as the sequence (P13569 whole entry R117H) above, with H117R, G1349D counted along it
T1 sequence (P13569 with tags, fused parts or gaps DEL508-508): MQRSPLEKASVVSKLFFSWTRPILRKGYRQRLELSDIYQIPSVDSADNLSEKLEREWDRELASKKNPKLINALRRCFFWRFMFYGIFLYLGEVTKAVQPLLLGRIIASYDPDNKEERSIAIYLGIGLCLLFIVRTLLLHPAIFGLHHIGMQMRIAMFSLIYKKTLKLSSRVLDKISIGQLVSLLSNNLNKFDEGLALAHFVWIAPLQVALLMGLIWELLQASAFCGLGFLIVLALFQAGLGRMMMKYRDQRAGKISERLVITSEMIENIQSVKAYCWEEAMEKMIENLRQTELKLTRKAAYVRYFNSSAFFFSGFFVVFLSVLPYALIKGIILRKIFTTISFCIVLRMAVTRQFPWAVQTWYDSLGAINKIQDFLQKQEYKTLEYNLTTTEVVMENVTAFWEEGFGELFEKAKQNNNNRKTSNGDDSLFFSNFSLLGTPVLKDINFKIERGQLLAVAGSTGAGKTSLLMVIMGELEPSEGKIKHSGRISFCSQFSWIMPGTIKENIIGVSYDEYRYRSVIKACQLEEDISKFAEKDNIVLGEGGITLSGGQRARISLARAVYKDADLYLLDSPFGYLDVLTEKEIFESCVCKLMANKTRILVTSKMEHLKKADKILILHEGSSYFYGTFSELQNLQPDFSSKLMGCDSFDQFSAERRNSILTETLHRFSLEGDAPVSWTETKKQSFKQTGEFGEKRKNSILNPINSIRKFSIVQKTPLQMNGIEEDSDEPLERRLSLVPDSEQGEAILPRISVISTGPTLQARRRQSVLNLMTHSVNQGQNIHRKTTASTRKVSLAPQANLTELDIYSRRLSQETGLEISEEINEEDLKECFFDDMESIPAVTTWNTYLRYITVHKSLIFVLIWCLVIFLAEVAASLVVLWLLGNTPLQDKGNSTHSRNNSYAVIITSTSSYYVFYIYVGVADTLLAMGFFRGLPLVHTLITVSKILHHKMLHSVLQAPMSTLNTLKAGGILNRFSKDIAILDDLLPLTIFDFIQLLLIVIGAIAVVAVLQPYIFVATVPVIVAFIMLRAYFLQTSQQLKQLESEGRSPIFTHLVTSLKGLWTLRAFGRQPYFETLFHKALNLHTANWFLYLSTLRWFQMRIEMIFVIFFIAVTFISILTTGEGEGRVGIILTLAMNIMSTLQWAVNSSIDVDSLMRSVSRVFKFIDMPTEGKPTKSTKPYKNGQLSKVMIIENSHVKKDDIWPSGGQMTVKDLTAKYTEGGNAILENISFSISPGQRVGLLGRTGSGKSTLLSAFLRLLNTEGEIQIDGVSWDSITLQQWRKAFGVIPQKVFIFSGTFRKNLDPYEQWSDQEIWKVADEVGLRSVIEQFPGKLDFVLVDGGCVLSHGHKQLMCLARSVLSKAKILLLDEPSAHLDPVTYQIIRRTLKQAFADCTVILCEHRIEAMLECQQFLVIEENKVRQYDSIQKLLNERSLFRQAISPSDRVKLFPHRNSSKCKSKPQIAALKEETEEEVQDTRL

pEC50 (CFTR ΔF508 mutant [1]) | pEC50 (CFTR-S549N) | pEC50 (CFTR G551D mutant) | pEC50 (CFTR ΔF508 mutant [2]) | pEC50 (CFTR-R117H) | pEC50 (CFTR-G1349D) | pEC50 (CFTR-G178R) | pEC50 (CFTR ΔF508 mutant [3]) | Structure (SMILES)
7.71 | 6.38 | 6.32 | 7.74 | 6.74 | 6.67 | 6.54 |  | CC(C)(O)C(=O)Nc1sc(S(=O)(=O)c2ccc(OC(F)(F)F)cc2)cc1C(N)=O [Compound 270, 2-(2-hydroxy-2-methylpropanamido)-5-(4-(trifluoromethoxy)phenylsulfonyl) thiophene-3-carboxamide]
7.52 and 6.86 | 6.61 | 6.06 and 5.85 | 7.56 | 6.89 | 6.85 | 7.24 |  | NC(=O)c1cc(S(=O)(=O)c2ccc(F)cc2)sc1NC(=O)C1(CO)CC1 [Compound 254, 5-(4-fluorophenylsulfonyl)-2-(1-(hydroxymethyl)cyclopropanecarboxamido) thiophene-3-carboxamide]
7.34 | 5.94 | 6.07 | 7.58 | 6.79 | 6.52 | 6.78 |  | CC(C)(O)C(=O)Nc1sc(S(=O)(=O)c2ccc(F)cc2Cl)cc1C(N)=O [Compound 286, 5-(2-chloro-4-fluorophenylsulfonyl)-2-(2-hydroxy-2-methylpropanamido) thiophene-3-carboxamide]
7.46 | 6.06 | 6.06 | 7.56 | 6.78 | 6.59 | 6.68 |  | CC(C)(O)C(=O)Nc1sc(S(=O)(=O)c2ccccc2Cl)cc1C(N)=O [Compound 290, 5-(2-chlorophenylsulfonyl)-2-(2-hydroxy-2-methylpropanamido) thiophene-3-carboxamide]
7.78 | 6.79 | 6.64 | 7.80 | 6.77 | 7.38 | 7.35 | 7.60 | CN(Cc1ccccc1)S(=O)(=O)c1cc(C(N)=O)c(NC(=O)c2ccn[nH]2)s1 [Compound 73, N-(5-(N-benzyl-N-methylsulfamoyl)-3-carbamoylthiophen-2-yl)-1H-pyrazole-3-carboxamide]
7.51 | 6.45 | 6.47 | 7.92 | 6.65 | 6.82 | 7.15 | 7.37 | NC(=O)c1cc(S(=O)(=O)c2ccccc2)sc1NC(=O)c1cc[nH]n1 [Compound 83, N-(3-carbamoyl-5-(phenylsulfonyl)thiophen-2-yl)-1H-pyrazole-3-carboxamide]
8.21 | 6.79 | 6.68 | 8.26 | 7.01 | 7.16 | 6.99 |  | CC(C)(O)C(=O)Nc1sc(S(=O)(=O)c2c(Cl)cccc2Cl)cc1C(N)=O [Compound 298, 5-(2,6-Dichloro-benzenesulfonyl)-2-(2-hydroxy-2-methyl-propionylamino)-thiophene-3-carboxylic acid amide]
8.09 | 7.22 | 6.75 | 8.12 | 7.40 | 7.43 | 7.62 |  | CC(C)(O)C(=O)Nc1sc(S(=O)(=O)c2ccccc2OC(F)(F)F)cc1C(N)=O [Compound 271, 2-(2-hydroxy-2-methylpropanamido)-5-(2-(trifluoromethoxy)phenylsulfonyl) thiophene-3-carboxamide]
 | 7.95 | 7.02 | 8.45 | 7.45 | 8.13 | 7.95 |  | CC(C)(O)C(=O)Nc1sc(S(=O)(=O)c2nc(C(F)(F)F)ccc2C(F)(F)F)cc1C(N)=O [Compound 412, 5-[[3,6-bis(trifluoromethyl)-2-pyridyl]sulfonyl]-2-[(2-hydroxy-2-methyl-propanoyl)amino] thiophene-3-carboxamide]
